Here are results for two molecules from paper PMC9600929, “Structural and Mechanistic Bases of Viral Resistance to HIV-1 Capsid Inhibitor Lenacapavir” (mBio, 2022).

In one data set the test system is HIV-1 nuclear import. Details: method as in PMID 32612233, PMID 31501601, PMID 33060363. To be noted: during virus ingress; cited from earlier work.
A further data set concerns HIV-1NL4-3 Q67H/K70R CA. The data set can be described thus: microbe, parasite or virus in culture. It counts as cell-based. Particulars: for EC50: Human immunodeficiency virus 1, MT4, HIV-1NL4-3 Q67H/K70R CA, MT-4 cells, mean ± SD.
The test system of data set [1] is HIV-1 reverse transcription. The arrangement: method as in PMID 32612233, PMID 31501601, PMID 33060363. To be noted: during virus ingress; cited from earlier work.
Data set [2] addresses cross-linked HIV-1 CA(Q67H) hexamer (Human immunodeficiency virus type 1 group M subtype B, UniProt P12493, A146C/E177C/M317A/Q199H/W316A). The data set can be described thus: SPR binding to cross-linked CA(Q67H) hexamers.
Data set [3] deals with T1, cross-linked HIV-1 CA(Q67H/N74D) hexamer (Human immunodeficiency virus type 1 group M subtype B, UniProt P12493, A146C/E177C/M317A/N206D/Q199H/W316A).
T1 construct: Expression, purification and assembly of recombinant CA; made in house; host or cells: E. coli BL21-DE3 (pET3a)
The data set can be described thus: biochemical. It counts as binding.

The next data set has as its system HIV-1NL4-3 Q67H/N74D CA. The data set can be described thus: microbe, parasite or virus in culture. To be noted: for EC50: Human immunodeficiency virus 1, MT4. Format: cell-based.
Data set [4] concerns the target cross-linked HIV-1 CA(WT) hexamer (Human immunodeficiency virus type 1 group M subtype B, UniProt P12493, A146C/E177C/M317A/W316A). Briefly: SPR binding to cross-linked CA(WT) hexamers. Background: SPR reads the build-up and loss of mass on a sensor chip optically.
For a further data set, the system named is HIV-1(M66I CA). Format: cell-based. To be noted: early stage antiviral activity.
In a further data set the test system is HIV-1NL4-3 N74D CA. Briefly: microbe, parasite or virus in culture. Format: cell-based. To be noted: for EC50: Human immunodeficiency virus 1, MT4.
The next data set deals with HIV-1 integration. The arrangement: method as in PMID 32612233, PMID 31501601, PMID 33060363. To be noted: during virus ingress; cited from earlier work.
For another data set, the system named is HIV-1NL4-3 Q67H CA. The data set can be described thus: microbe, parasite or virus in culture. Particulars: for EC50: Human immunodeficiency virus 1, MT4. Format: cell-based.
In the next data set the test system is HIV-1NL4-3 WT CA. The data set can be described thus: microbe, parasite or virus in culture. It counts as cell-based. Particulars: Human immunodeficiency virus 1, MT4.
Data set [5] has as its target cross-linked HIV-1 CA(N74D) hexamer (Human immunodeficiency virus type 1 group M subtype B, UniProt P12493, A146C/E177C/M317A/N206D/W316A). Briefly: SPR binding to cross-linked CA(N74D) hexamers.
The subject of a further data set is MT4 cells. The data set can be described thus: in vitro. Particulars: MT4 cells, 2 days, CellTiter-Glo. Format: cell-based. The procedure:
(§1) MT4 cells in complete RPMI were mixed with the indicated concentrations of compounds on 96-well plates (1 × 10^4 cells per well). Cells were kept in a humidified 37°C incubator for 2 days. The effect of test compounds on cell viability was measured using CellTiter-Glo (Promega, G7570).
In general terms: ATP-based viability assays read luminescence as a measure of living cells.

The nature of the next data set: in vitro. It counts as cell-based. Particulars: human; from cytotoxicity (Fig. S7) and antiviral activity (Fig. 5C); read-out: selectivity index. The procedure:
as §1

[6] abbreviates: WT compared to WT CA (reference).

Molecules are shown by their SMILES. “And” between values parts separate entries of the source, which are not always exact repeats. Equal values may be shown once.

By EC50 is commonly meant the midpoint of the concentration-response curve. As a reminder, the Kd is the concentration at which binding is half-saturated. Regarding `CC(C)(C#Cc1ccc(-c2ccc(Cl)c3c(NS(C)(=O)=O)nn(CC(F)(F)F)c23)c([C@H](Cc2cc(F)cc(F)c2)NC(=O)Cn2nc(C(F)(F)F)c3c2C(F)(F)[C@@H]2C[C@H]32)n1)S(C)(=O)=O` [LEN, Lenacapavir], the EC50 in the data set with HIV-1 nuclear import is 0.5 to 5 nM; in the data set on HIV-1NL4-3 Q67H/K70R CA it was 1.5 ± 0.023 nM; in [1], 5 to 50 nM; with HIV-1NL4-3 Q67H/N74D CA it was 24.2 nM; in the data set on HIV-1NL4-3 N74D CA, 0.902 ± 0.027 nM; with HIV-1 integration, 0.05 to 0.5 nM. Besides, the EC50 is 0.611 ± 0.01 nM in the data set on HIV-1NL4-3 Q67H CA and 0.091 ± 0.01 nM in the data set with HIV-1NL4-3 WT CA. The “association rate constant (kon)” value in data set [2] (CA (Q67H), mean ± SD) is recorded as 6.4 ± 1.1 x 10^4 M^-1s^-1; in [3] (CA (Q67H/N74D), mean ± SD) it was 3.0 ± 0.9 x 10^4 M^-1s^-1; in data set [4] (CA (WT), mean ± SD), 7.0 ± 1.6 x 10^4 M^-1s^-1; in [5] (CA (N74D), mean ± SD) it was 3.0 ± 0.3 x 10^4 M^-1s^-1. For the same molecule, the “dissociation rate constant (koff)” value in data set [2] (CA (Q67H), mean ± SD) is 7.3 ± 1.0 x 10^-5 s^-1; in [3] (CA (Q67H/N74D), mean ± SD), 1.1 ± 0.5 x 10^-3 s^-1; in [4] (CA (WT), mean ± SD), 1.5 ± 0.2 x 10^-5 s^-1; in [5] (CA (N74D), mean ± SD), 1.4 ± 0.02 x 10^-4 s^-1. Further, the Kd in [2] (CA (Q67H), mean ± SD, read-out: equilibrium dissociation constant (KD)) worked out at 1.2 nM; in data set [3] (CA (Q67H/N74D), mean ± SD, read-out: equilibrium dissociation constant (KD)) it was 34.1 nM; in data set [4] (CA (WT), mean ± SD, three independent experiments, read-out: equilibrium dissociation constant (KD)) it was 0.23 ± 0.08 nM; in [5] (CA (N74D), mean ± SD, read-out: equilibrium dissociation constant (KD)), 4.6 nM. Further, the koff fold change was 5 fold in data set [2] (Q67H CA compared to WT CA); 73 fold in data set [3] (Q67H/N74D CA compared to WT CA); 1 fold in data set [4] (setting [6]); ~ 10 fold and 9 fold in data set [5] (N74D CA compared to WT CA). Further, the kon fold change in data set [2] (Q67H CA compared to WT CA) is listed as 0.9 fold; in data set [3] (Q67H/N74D CA compared to WT CA) it was 0.4 fold; in data set [4] (setting [6]), 1 fold; in data set [5] (N74D CA compared to WT CA), 0.4 fold. The molecule further came in with a KD fold change in data set [4] (setting [6]) of 1 fold. In addition, the “susceptibility of the virus to the inhibitor” value in the data set on HIV-1(M66I CA) was “fully resistant”. The “decreased virus susceptibility to the inhibitor” value with HIV-1NL4-3 N74D CA ({}) is on record as ~ 10 fold. Besides, in the data set with HIV-1NL4-3 Q67H CA (Q67H CA variant versus WT), the “decreased potency of the inhibitor with respect to the CA variant” value was determined as 7 fold. Further, the “adverse effect on association rate constant” value in data set [5] (N74D CA versus WT CA, stated as fold adverse effect) is ~ 2 fold.

In the case of `CC(C)(C#Cc1ccc(-c2ccc(Cl)c3c(NS(C)(=O)=O)nn(CC(F)(F)F)c23)c([C@H](Cc2cc(F)cc(F)c2)NC(=O)Cn2nc(C(F)(F)F)c3c2CCCC3)n1)S(C)(=O)=O` [KFA-012], the “Fold increase of KFA-012 potency versus LEN potency” value in the data set with HIV-1NL4-3 Q67H/K70R CA (HIV-1NL4-3 Q67H/K70R CA) was ~ 1.7 fold; in the data set with HIV-1NL4-3 Q67H/N74D CA (HIV-1NL4-3 Q67H/N74D CA), 2.6 fold; in the data set on HIV-1NL4-3 Q67H CA (HIV-1NL4-3 Q67H CA) it was 1.8 fold. In addition, the EC50 came to 0.883 ± 0.17 nM in the data set on HIV-1NL4-3 Q67H/K70R CA; 9.18 nM in the data set with HIV-1NL4-3 Q67H/N74D CA; 0.633 ± 0.014 nM in the data set with HIV-1NL4-3 N74D CA; 0.335 ± 0.01 nM in the data set with HIV-1NL4-3 Q67H CA; 0.071 ± 0.006 nM in the data set on HIV-1NL4-3 WT CA. Also, the “improved binding affinity compared with parental LEN” value in data set [3] (CA(Q67H/N74D) hexamer, SPR) is ~ 2 fold; in data set [4] (CA(WT) hexamer, SPR), ~ 2 fold. Also, in the data set on MT4 cells, the “compound concentrations with adverse effects on cell viability” value was above 3000 nM. Moreover, the “concentration up to which no cytotoxicity was observed” value in the data set on MT4 cells is “up to 781 nM”. In addition, the selectivity ratio at 2 days in the data set “in vitro” is above 10000. The “susceptibility of the virus to the inhibitor” value in the data set on HIV-1(M66I CA) is “fully resistant”.
